Results published in patent publication US20230048888A1, “USE OF TRIAZOLOTRIAZINE DERIVATIVE IN TREATMENT OF DISEASES” (ZHEJIANG VIMGREEN PHARMACEUTICALS, LTD., priority 2019, published 2023).
Where two headings read alike, the source gives them in different places.

How the values were obtained:
[1] = test system: reserpine-induced dyskinesia; experiment: Mouse reserpine-induced dyskinesia model (Laboras spontaneous activity); type: in vivo, CD1 mice
Excerpt: Reserpine is an indole alkaloid drug, which can inhibit the reuptake of noradrenergic neuron terminals to lead to slowed movement or incompetence, thereby inducing clinical symptoms similar to those of the Parkinson's disease. Its mechanism is as follows: the reserpine can block the transport of irreversible monoamines such as DA, 5-hydroxytryptamine (5-HT) and norepinephrine (NA) in vesicles, such that the monoamines are degraded in cells to consume central and peripheral monoamines, and rapidly reduce the level of monoamines, resulting in dyskinesias and other Parkinson's disease-like symptoms. An A2A receptor antagonist was administered to evaluate if the compound under test can ameliorate the dyskinesia of the mice. The evaluation indicators include walking distance, walking time, number of standings and standing time. […] The total number of actually used animals was 90. The animals were purchased from Charles River Laboratories in Beijing (Animal Certificate Number: 1100112011009984) and raised in the animal house of ChemPartner in Shanghai (Experimental Animal License: SYXK (Shanghai) 2017-0018). The animal house has an SPF environment. On the first day of the test, a single subcutaneous injection of 0.1% acetic acid or 0.6 mg/kg reserpine was performed based on the pre-set grouping and time points. After the injection, the animals were put back to rearing cages and pushed back to the original rearing room. The activity test was carried out on the second day of the test, and before the test, the Laboras system needed to be calibrated in advance to make it in a normal working state. […] The mice were put into an independent Laboras test box 50 minutes after the administration, and the Laboras behavior recording system was started up after 10 minutes of adaptation. The current moment is the 1st hour after the last administration for the animals, and the animals were recorded continuously for 60 minutes. After the test was completed, the Laboras behavior system automatically analyzed the walking distance (m), walking time (sec), the number of standings and standing time (sec) of the mice at 0-30 min, 30-60 min, 0-60 min and every 10 min. All measurement data were represented as mean±standard error of mean (mean±SEM), and check analysis was performed by Prism 8.0 statistical software.

[2] = target: T1, Human adenosine ADORA2A receptor membrane protein (Homo sapiens, UniProt P29274); experiment: Radioisotope ligand competitive binding, ADORA2A ([3H] CGS-21680); conditions: ADORA2A (IC50, nM, n = 3), binding test
T1 construct: purchased PerkinElmer RBHA2AM400UA
Experimental: ADORA2A: 50 mM Tris-HCl pH 7.4, 10 mM MgCl2, 1 mM EDTA
4) Preparation of compounds: the test compounds and the reference compounds were separately diluted with 100% DMSO.
1 μL of a sample to be tested and 1 μL of a reference compound were added to a 96-well plate in sequence. […] 100 μL of cells and 100 μL of isotopes were added to all experimental wells. The 96-well plate was sealed; ADORA1, ADORA2B, and ADORA3 were incubated for 1 hour on a shaker (300 rpm) at room temperature (22° C.); and ADORA2A was incubated for 2 hours on a shaker (300 rpm) at room temperature (22° C.). At the same time, a GF/C filter plate was soaked with ADORA1, ADORA2A, ADORA2B, and ADORA3 by using 0.3% PEI for at least 30 minutes at room temperature, at 50 μL/well. After the incubation was completed, the incubated reaction system was collected onto the GF/C filter plate with a Harvester, washed 4 times and then dried for 0.5 hours in an oven at 50° C. The bottom of the dried GF/C filter plate was sealed with a film, 50 μL of scintillation solution was added to each well, which was then sealed with a Top-seal-A film. With Microbeta readings, the data was analyzed by GraphPad Prism 5.0.
% Inhibition=100×(1−(Sample_raw value−Low control_Average)/(High control_Average−Low control_Average))
The data was fitted with “log(inhibitor) vs response-variable slope” in GraphPad Prism 5.0 to obtain IC50.

[3] = Pharmacokinetics of test compounds in SD rats (15.2; IV and PO, mixed administration); type: in vivo; conditions: for Cl_pred / AUC(0-t) / Cmax / half-life: IV; for AUC(0-t) / Cmax / half-life: male, Sprague-Dawley, rat, plasma; for half-life: read-out: T½ (converted)
[4] = 3 mg/kg intragastric, 30-60 min
[5] = 10 mg/kg intragastric, 0-30 min
[6] = 10 mg/kg intragastric, 0-60 min
[7] = 10 mg/kg intragastric, 30-60 min
[8] = 30 mg/kg intragastric, 0-30 min
[9] = 30 mg/kg intragastric, 0-60 min
[10] = 30 mg/kg intragastric, 30-60 min

T1 sequence (P29274 whole entry): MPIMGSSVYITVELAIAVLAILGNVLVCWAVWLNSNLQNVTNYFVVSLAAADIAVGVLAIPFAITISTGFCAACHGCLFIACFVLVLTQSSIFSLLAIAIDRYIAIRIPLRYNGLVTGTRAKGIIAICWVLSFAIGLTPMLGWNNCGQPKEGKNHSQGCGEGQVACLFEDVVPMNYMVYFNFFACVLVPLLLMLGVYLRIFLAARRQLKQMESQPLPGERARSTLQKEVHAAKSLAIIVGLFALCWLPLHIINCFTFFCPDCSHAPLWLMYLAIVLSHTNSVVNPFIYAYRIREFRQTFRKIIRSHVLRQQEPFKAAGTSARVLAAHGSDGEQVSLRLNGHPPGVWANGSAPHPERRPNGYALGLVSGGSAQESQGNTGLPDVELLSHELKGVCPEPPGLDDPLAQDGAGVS

Cl_pred ([3]; 1 mg/kg)	AUC(0-t) ([3]; 1 mg/kg)	Cmax ([3]; 1 mg/kg)	half-life ([3]; 1 mg/kg)	Compound	Number of standings [1, 5]	Walking distance [1, 5]	Walking time [1, 5]	Number of standings [1, 6]	Walking distance [1, 6]	Walking time [1, 6]	Number of standings [1, 7]	Walking distance [1, 7]	Walking time [1, 7]	IC50 ([2]; Table 10 (IC50))	IC50 ([2]; Table 11)	also measured
–	–	–	–	CC(=O)O.Nc1nc(NCCc2ccc(NC3COC3)cc2)nc2nc(-c3ccco3)nn12 [Acetate of Compound 22, 2-(furan-2-yl)-N5-(4-(oxetane-3-ylamino)phenethyl)-[1,2,4]triazolo[1,5-a][1,3,5]triazine-5,7-diamine acetate]	75.6 ± 8	10.7 ± 1.0 m	160.5 ± 10.8 s	116 ± 15.7	19.2 ± 2.9 m	245.4 ± 29.1 s	40.3 ± 11.4	8.5 ± 2.3 m	84.9 ± 22.4 s	–	–	Number of standings ([1]; 3 mg/kg intragastric, 0-30 min): 36.7 ± 5.9; Walking distance ([1]; 3 mg/kg intragastric, 0-30 min): 4.3 ± 0.7 m; Walking time ([1]; 3 mg/kg intragastric, 0-30 min): 77.8 ± 11.0 s; Number of standings ([1]; 3 mg/kg intragastric, 0-60 min): 49.6 ± 12.2; Walking distance ([1]; 3 mg/kg intragastric, 0-60 min): 6.9 ± 2.1 m; Walking time ([1]; 3 mg/kg intragastric, 0-60 min): 108.5 ± 23.0 s; Number of standings [1, 4]: 12.9 ± 6.8; Walking distance [1, 4]: 2.6 ± 1.6 m; Walking time [1, 4]: 30.7 ± 13.9 s; Number of standings [1, 8]: 98.7 ± 12.6; Walking distance [1, 8]: 11.3 ± 1.1 m; Walking time [1, 8]: 175.6 ± 12.4 s; Number of standings [1, 9]: 178 ± 20.9; Walking distance [1, 9]: 27.1 ± 2.5 m; Walking time [1, 9]: 311.0 ± 22.3 s; Number of standings [1, 10]: 79.4 ± 10.1; Walking distance [1, 10]: 15.9 ± 1.9 m; Walking time [1, 10]: 135.4 ± 12.8 s
–	–	–	–	Nc1nc(NCCc2ccc(NC3COC3)cc2)nc2nc(-c3ccco3)nn12 [Compound 22, 2-(furan-2-yl)-N5-(4-(oxetan-3-ylamino)phenethyl)-[1,2,4]triazolo[1,5-a][1,3,5]triazine-5,7-diamine]	–	–	–	–	–	–	–	–	–	0.96 ± 0.11 nM	0.85 nM	–
188.857 mL/min/kg	83.8 ng·h/mL	139 ng/mL	28.2 min	COCCNc1ccc(CCNc2nc(N)n3nc(-c4ccco4)nc3n2)cc1 [Compound 27, 2-(furan-2-yl)-N5-(4-((2-methoxyethyl)amino)phenethyl)-[1,2,4]triazolo[1,5-a][1,3,5]triazine-5,7-diamine]	–	–	–	–	–	–	–	–	–	–	–	–
11.834 mL/min/kg	1410 ng·h/mL	1280 ng/mL	46.8 min	Cn1nnc(-c2ccc(CCNc3nc(N)n4nc(-c5ccco5)nc4n3)cc2)n1 [Compound 40, N5-(4-(2-methyl-2H-tetrazol-5-yl)phenethyl)-2-(furan-2-yl)-[1,2,4]triazolo[1,5-a][1,3,5]triazine-5,7-diamine]	–	–	–	–	–	–	–	–	–	1.85 ± 0.27 nM	1.64 nM	Cl_pred ([3]; 1.64 mg/kg): 27.0478 mL/min/kg; Cl_F_pred ([3]; PO, […]): 23.254 mL/min/kg; F ([3]; PO, […]): 116.3%; AUC(0-t) ([3]; 1.64 mg/kg): 1010 ng·h/mL; Cmax ([3]; 1.64 mg/kg): 1310 ng/mL; half-life ([3]; 1.64 mg/kg): 31.8 min
–	–	–	–	CCn1c(=O)c2c(nc(/C=C/c3ccc(OC)c(OC)c3)n2C)n(CC)c1=O [Istradefylline, reference compound]	94.3 ± 11.1	11.9 ± 1.4 m	177.5 ± 16.0 s	165 ± 20	23.7 ± 3.2 m	298.3 ± 28.4 s	70.6 ± 10.6	11.8 ± 2.0 m	120.8 ± 16.0 s	–	–	–
